One series has as its system colorectal tumorigenesis. Nature of the series: AOM/DSS-induced colorectal cancer model in conventional C57BL/6 mice. Format: in vivo. From the text:
For each cycle, mice were allowed free access to drinking water supplemented with 2.0% DSS for 5 days, followed by 16 days of regular water. Drinking water was supplemented with antibiotics cocktail (0.2 g/L of ampicillin, neomycin and metronidazole and 0.1 g/L of vancomycin) for two weeks, every other two weeks, till the end of experiment, to deplete the gut microbiota. […] At day 80 for AOM/DSS model and day 84 for APC^min/+ model, mice were harvested. The intestines were longitudinally opened along the mesenteric margin and flushed with ice-cold phosphate-buffered saline (PBS). Solid neoplastic lesions were carefully counted for tumor number and measured for tumor size (average diameter, (major diameter+minor diameter)/2) and tumor load (sum of average diameters of all tumors). The intestinal tissues were fixed in 10% neutral buffered formalin and embedded in paraffin. Sections (4 μm) were stained with hematoxylin and eosin for histological examination by a pathologist (A/Professor Anthony W H Chan) who was blind to the experimental design. The remaining tissues were snap-frozen in liquid nitrogen, and stored at −80° C. until use. All procedures adhered to the guidelines approved by the Animal Experimentation Ethics Committee of the Chinese University of Hong Kong.

A further series has as its system COX-2. The experiment in a line: COX-2 mRNA in distal colonic tissues by qRT-PCR. The format is in vivo, mice. The settings on record: for tissue COX-2 expression: compared to control mice. How it is done: Total RNA in distal colonic tissues was extracted using TRIzol reagent (Thermo Fisher Scientific). The quality and quantity of RNA were determined by NanoDrop2000 spectrophotometer. Complementary DNA (cDNA) was synthesized from 1000 ng of the extracted RNA by reverse transcription (PrimeScript RT Reagent Kit with gDNA Eraser) (Takara, Japan) and analyzed by qPCR with normalization by GAPDH. The primers used were: […]
(In qPCR the cycle at which signal appears reflects the starting amount.)

For the next series, the system named is PGE2. The experiment in a line: Plasma PGE2 by ELISA. The format is in vivo, mice. How it is done: The plasma levels of PGE2 were measured using Multispecies Competitive ELISA Kit (Thermo Fisher Scientific). Briefly, 500 μL ice-cold methanol was added to 150 μL of plasma sample with 28 μM indomethacin and mixed vigorously. After acidification by 2M HCl to pH 3.5, the aqueous layer was extracted with 500 μL chloroform and centrifuged at 2000 g for 20 min^25. The […] organic phase was discarded, and the remaining aqueous phase was evaporated to dryness under nitrogen, before measurement by the kit.
On the technique in general: ELISA stands for enzyme-linked immunosorbent assay.

A short description of series [1]: Plasma aspirin/salicylic acid level in APCmin/+ mice with or without antibiotics (UHPLC-Q-TOF/MS). Format: in vivo. Particulars: for plasma level of aspirin: antibiotics-treated APCmin/+ mice relative to mice with intact microbiota. The procedure: The levels of aspirin from plasma, gut luminal contents and culture medium was determined by ultra-high-performance liquid chromatography-quadrupole time-of-flight mass spectrometry (UHPLC-Q-TOF/MS). The detection sample was mixed in 5 μL 4-C1-phenylalanine (0.39 mg/mL, internal standard). Aspirin and salicylic acid were extracted twice by 400 μL cold methanol. Supernatants were dried under nitrogen stream and detected by UHPLC (1290 Infinity LC, Agilent, Santa Clara, Calif.) and MS (6550 Q-TOF/MS, Agilent, CA).
The primary metabolite of aspirin, salicylic acid, in culture medium was examined by Trinder's method^26. Equal number of fecal bacteria (estimated by optical density (OD) 600) from APC^min/+ mice with and without antibiotic treatment were inoculated into the brain heart infusion (BHI) medium (Thermo Fisher Scientific) containing aspirin (10 mM). After 2-hour co-incubation at 37° C., the level of salicylic acid in medium was measured by Trinder's method^26. Briefly, the supernatant of medium was mixed with a solution containing 40 g ferric nitrate, 40 g mercuric chloride and 120 mL 1N HCL in 1 L ddH2O at 1:5 ratio. Salicylic acid was quantified by absorbance value at 540 nm. The plasma and luminal content levels of salicylic acid were evaluated by UHPLC-Q-TOF/MS.
To determine the reason for the enhanced CRC inhibitory effect of aspirin in microbiota-depleted mice, the plasma level of aspirin was evaluated in mice with or without intact microbiota. Antibiotics cocktail was administered to APC^min/+ mice for five days followed by oral administration of aspirin (10 mg/kg) (FIG. 4A), and subsequent UHPLC-Q-TOF/MS analysis (FIG. 4B). […] To confirm this observation, the level of salicylic acid, the primary metabolite of aspirin, was evaluated in the plasma. The plasma level of salicylic acid increased at 1 h post aspirin administration in microbiota-depleted mice compared to mice with intact microbiota (FIG. 9). These findings indicate that the gut microbiota is associated with the reduction of aspirin bioavailability.

Another series deals with gut microbiota. The experiment in a line: Shotgun metagenomics of feces from aspirin-treated versus control APCmin/+ mice. Format: in vivo. The procedure: Whole-genome shotgun metagenomic sequencing of fecal samples from mice were performed on Illumina HiSeq 2000 (Illumina, San Diego, Calif.) as previously described^27. […] Mammalian genomes (hg38, felCat8, canFam3, mm10, rn6, susScr3, galGal4 and bosTau8; UCSC Genome Browser) and 6877 bacterial plasmids (NCBI RefSeq database accessed on May 12, 2016), 2116 complete plastomes (NCBI RefSeq database accessed on May 12, 2016) and 6093 UNiVec sequences (NCBI RefSeq database accessed on May 12, 2016), which are potential habitat-/laboratory-associated or extra-chromosomal sequence contaminants, were removed after alignment using Bowtie2 v_2.2.9 with “very-sensitive” default settings. Taxonomy was assigned to metagenomic reads using k-mer-based algorithms implemented in Kraken taxonomic annotation pipeline with each k-mer in a read mapped to the lowest common ancestor of all reference genomes with exact k-mer matches. Each query was thereafter classified to a taxon with the highest total hits of k-mer matched by pruning the general taxonomic trees affiliated with mapped genomes. The final metagenomic read counts were rarified to the sample with the lowest value and further normalized by cumulative sum scaling. In-house fecal metagenomic sequences were examined for the abundance of candidate bacteria identified from mouse fecal samples^27,28.

Where [2] appears, read: aspirin 400 mg/L drinking water, microbiota-depleted (antibiotics cocktail) AOM/DSS-treated mice, vs no aspirin.
Setting [3] is: high-dose aspirin 1200 mg/L, conventional AOM/DSS-treated mice gavaged with L. sphaericus twice/week.
[4] abbreviates: higher dose aspirin 1200 mg/L in drinking water, microbiota-intact AOM/DSS-treated mice, vs mice without aspirin.
The mark [5] stands for this setting: AOM/DSS mice with depleted microbiota.
Setting [6] is: APCmin/+ mice with depleted microbiota.
The mark [7] stands for this setting: aspirin-treated APCmin/+ mice compared to control.

The values that follow come from patent US12275995B2, “Lysinibacillus sphaericus and aspirin chemoprevention of colorectal cancer” (priority 2019, dated 2025).

On to `CC(=O)Oc1ccccc1C(=O)O` [aspirin, acetylsalicylic acid], for which the colorectal tumor load result in the series with colorectal tumorigenesis (setting [2]) is recorded as “significant reductions”; in the series on colorectal tumorigenesis (setting [4]) it was “significantly reduced”. Further, the colorectal tumor number result with colorectal tumorigenesis (setting [2]) was “significant reductions”; with colorectal tumorigenesis (setting [4]), “significantly reduced”. The “preventive effect on tumor load” value in the series with colorectal tumorigenesis (setting [3]) is given as “marginally”. In addition, in the series on colorectal tumorigenesis (setting [3]), the “preventive effect on tumor number” value is “impaired the preventive effect”. In addition, the “colonic COX-2 mRNA level” value in the series on COX-2 (setting [5]) and in the series with COX-2 (setting [6]) was “significantly decreased” throughout. Besides, the COX-2 expression entry with COX-2 (AOM/DSS-treated germ-free mice) was “reductions”. The “tissue COX-2 expression” value in the series on COX-2 (conventional mice with intact microbiota) and in the series with COX-2 (conventionalized germ-free mice) was “no differences” in each case. Further, the “plasma PGE2 level” value in the series with PGE2 (setting [5]) is “significantly decreased”; with PGE2 (AOM/DSS-treated germ-free mice), “reductions”; in the series with PGE2 (setting [6]), “significantly decreased”; in the series with PGE2 (conventional mice with intact microbiota, compared to control mice) it was “no differences”; in the series with PGE2 (conventionalized germ-free mice, compared to control mice) it was “no differences”. Further, the “plasma level of aspirin” value in series [1] (0.5 h post oral aspirin 10 mg/kg) and in series [1] (1 h post oral aspirin 10 mg/kg) was “significantly increased” each time. Also, the “plasma level of salicylic acid (primary metabolite of aspirin)” value in series [1] (1 h post oral aspirin 10 mg/kg, microbiota-depleted mice compared to mice with intact microbiota) is listed as “increased”. Also, in the series on gut microbiota (antibiotics-naive aspirin-treated APCmin/+ vs control mice), the “association between microbial community composition and aspirin treatment (multivariate component analysis)” value was “significant associations”. Also, the “Bifidobacterium and Lactobacillus genera (linear discriminant analysis effect size)” value in the series with gut microbiota (setting [7]) is on record as “enrichment”. Moreover, the “Clostridium and Clostridiodes genera” value in the series with gut microbiota (setting [7]) is “depleted”. The “probiotic species B. pseudolongum, B. breve, B. animalis, L. reuteri, L. gasseri, L. johnsonii” value in the series on gut microbiota (setting [7]) was “enriched”.
